Data reported in patent US4457864A, “Synthetic analogues of α-melanotropin” (University Patents, Inc., priority 1981, dated 1984).
Entries after “also recorded” stand apart in the source; their conditions may differ. Like-named read-outs stand apart in the source and are kept apart here.

Columns and labels:
[1] = cited from earlier work
[2] = cited from earlier work; remark: listed apart in the source
frog (Rana pipiens) = assay: in vivo skin darkening (reflectance) in frogs after a single subcutaneous injection
Description: (§1) [Nle^4, D-Phe^7 ]-α-MSH was examined for its biological effects on melanosome dispersion in vivo, using the frog (Rana pipiens), and the lizard (Anolis carolinensis). See, Hadley, et al. Science, 213, pp. 1025-1027 (1981).
Frogs of both sexes were placed in white plastic containers with a small amount of water under overhead illumi-nation. Under these conditions, the animals became light green in color, presumably because they were not releasing any endogenous α-MSH. Forty-eight hours later, light reflectance from the dorsal surface of the animals was measured with a Photovolt reflectometer. At this time, the frogs were injected subcutaneously with Ringer solution (controls) or Ringer solutions containing α-MSH, [Nle^4 ]-α-MSH, or [Nle^4, D-Phe^7 ]-α-MSH (100 μl of a 10^-4 M solution per 10 g of body weight) to provide a final body concentration of approximately 18 μg/10 g. Subsequent reflectance values were taken at 2- to 3-day intervals for 6 weeks.

[3] = literature reports, cited from earlier work
[4] = resistance to serum proteolytic enzyme degradation, residual activity by in vitro frog skin bioassay; type: in vitro ADME; conditions: 10 nM peptide, 37° C., Ham's F-10 with 10% horse serum and 2% fetal calf serum, up to 72 hours; FIG. 3
Protocol: Synthetic α-MSH, [Nle^4 ]-α-MSH and [Nle^4, D-Phe^7 ]-α-MSH were incubated (37° C.) under sterile conditions in Corning flasks containing Ham's F-10 media containing 10% horse serum and 2% fetal calf serum. Samples of the media containing the peptides (10 nM) were removed at time zero and at 24, 48 and 72 hours. The samples were immediately frozen and assayed for biological activity using the in vitro frog skin bioassay.

[5] = test system: adenylate cyclase in Cloudman S-91 mouse melanoma tumors; assay: melanoma adenylate cyclase activity in vitro ([α-32P]ATP conversion to [32P]cAMP); type: biochemical
Protocol: (§2) The relative effects of α-MSH, [Nle^4 ]-α-MSH and [Nle^4, D-Phe^7 ]-α-MSH on mammalian melanoma adenylate cyclase activity in vitro were determined by assaying [^α-32 P] ATP conversion to [^32 P]cAMP in Cloudman S-91 mouse melanoma tumors as described in Sawyer, et al., supra. [^32 P]cAMP was isolated, purified and dectected according to Salomon et al., Anal. Biochem., 58, pp. 541-48 (1974).

[6] = test system: adenylate cyclase in Cloudman S-91 mouse melanoma tumors; assay: retention of adenylate cyclase activity after iodination; type: biochemical; conditions: iodinated through use of lacto peroxidase or iodogen
Protocol: as §2
The procedures of Hunter, et al., Nature, 194, pp. 495-496 (1962) were applied to [Nle^4, D-Phe^7 ]-α-MSH and the resultant compound was tested for adenylate cyclase activity as in Example 2.

[7] = test system: Cloudman S-91 NCTC 3960 (CCL 53.1) melanoma cells; assay: tyrosinase activity of melanoma cells in tissue culture (3H2O release from [3H]tyrosine); type: cell-based, mouse; conditions: 0.1 μM melanotropin, exposure 0.5, 4 and 8 hr, then 24 hr with [3H]tyrosine; FIG. 2
Protocol: Cloudman S-91 NCTC 3960 (CCL 53.1) melanoma cells were obtained from the American Type Culture Collection Cell Repository and were grown and maintained as described in Fuller, et. al. Pigment Cell, 4 pp. 97-104 (1979). Melanoma cells (2×10^5) were seeded in 25 cm^2 flasks and allowed to attach overnight. At time t=0, the medium in all the flasks was replaced with 4 ml of medium containing 0.1 μM melanotropin (i.e., α-MSH, [Nle^4 ]-α-MSH, or [Nle^4, D-Phe^7 ]-α-MSH) or a control medium containing no melanotropin. At selected time intervals (t=0.5, 4, and 8 hr.) the control medium and melanotropin-containing medium was removed. The cells were carefully rinsed three times with fresh melanotropin-free medium and then exposed to fresh melanotropinfree medium containing [^3 H]-tyrosine (specific activity 48 Ci/mmol; 1 Ci=3.7×10^10 becquerels) at 1 μCi/ml. After 24 hr, this medium was removed and the tyrosinase activity of the melanoma cells was determined by assaying for the ^3 H2 O released from the [^3 H]tyrosine by the action of tyrosinase.
Tyrosinase activities are expressed as percent activity of control cells (i.e., cells not exposed to melanotropin). Each bar represents the mean of four determinations ±SEM.

[8] = test system: frog (Rana pipiens) skin melanophores; assay: in vitro frog skin bioassay, duration of melanosome dispersion; type: cell-based
Protocol: Variation in biological effects of α-MSH analogues are generally discussed in terms of "potentiation" (increased activity relative to naturally-occurring α-MSH) and "prolongation". Such effects are measured by the classic frog skin bioassay system. See, Shizume, et al., Endocrinology, 54, 553-560 (1954). Because α-MSH has an extremely short half-life in serum (about 2 minutes), synthetic analogues having greater serum stability in addition to greater potency and prolongation characteristics have been sought.
[Nle^4, D-Phe^7 ]-α-MSH was examined with respect to the duration of its ability to stimulate melanosome dispersion in vitro using the frog (Rana pipiens) skin bioassay as described in Shizume, Endocrinology 54, 553-560 (1954).

[9] = test system: lizard (Anolis carolinensis); assay: in vivo skin darkening in lizards after a single injection; conditions: 18 μg/10 g final body concentration
Description: as §1

[10] = test system: adenylate cyclase in Cloudman S-91 mouse melanoma tumors; conditions: Sawyer et al.; cited from earlier work
amphibian melanophores = conditions: Sawyer et al.; cited from earlier work
[11] = s.c., 18 μg/10 g, single injection

α-Melanotropin [α-MSH]
half-life in serum [1]: about 2 minutes | biological activity upon oxidative iodination ([2]; iodination for radiolabelling): essentially inactivated; also recorded: loses biological activity | time by which the darkening effect was totally lost (frog (Rana pipiens); [11]): ≤ 2 days

[D-Tyr^2 ]-α-MSH
potency / activity relative to the natural hormone [3]: significantly less potent; also recorded: diminished potency

[Nle^4, D-Phe^7 ]-α-MSH
loss of biological activity on incubation in serum-containing medium [4]: almost totally resistant to loss of biological activity | maximal adenylate cyclase activity compared with α-MSH and [Nle4]-α-MSH ([5]; FIG. 1): same maximal adenylate cyclase activity | potency in stimulating adenylate cyclase relative to the native hormone (α-MSH) ([5]; dose-response curves of FIG. 1, Cloudman S-91 mouse melanoma): 26 times | adenylate cyclase activity after iodination [6]: fully retained its activity | tyrosinase activity compared with α-MSH and [Nle4]-α-MSH [7]: much more active | duration of melanosome dispersion in vitro [8]: "prolonged" biological effect superior to α-MSH and [Nle^4 ]-α-MSH | degree of skin darkening in vivo (frog (Rana pipiens); s.c., 18 μg/10 g final body concentration): Maximum darkening | skin darkening remaining at 6 weeks (frog (Rana pipiens); s.c., 18 μg/10 g, 6 weeks after single injection): half-maximum darkening | darkening effect of lower dose compared with higher dose (frog (Rana pipiens); single injection, 0.18 μg/10 g versus 18 μg/10 g final body concentration): nearly as effective as the higher dose | duration of prolonged skin darkening [9]: about 3 days

[Nle^4 ]-α-MSH
loss of biological activity on incubation in serum-containing medium [4]: lost essentially all biological activity | potency in stimulating melanoma adenylate cyclase activity relative to α-MSH [10]: approximately twice as potent | biological activity upon subsequent exposure to sodium iodide ([2]; after chloramine-T, further contact with sodium iodide): inactivated; also recorded: loses activity | biological activity after chloramine-T treatment ([2]; chloramine-T, oxidant used in peptide iodination): resistant to inactivation; also recorded: retains activity | potency in dispersing amphibian melanophores relative to α-MSH (amphibian melanophores): approximately twice as potent | duration of darkening effect compared with α-MSH (frog (Rana pipiens); [11]): effective for only a slightly longer period than α-MSH

[D-Ser^1]-α-MSH
potency / activity relative to the natural hormone [3]: diminished potency | potency / activity relative to the natural hormone ([3]; listed as D-Ser^1): no more active than the native hormone
